pKi: −log10 of the molar value. The source made the active and inactive calls. The calls are words filed in the database; no cut-off is given here.
Experiments:
Rattus norvegicus [1] = assay: Cardiotoxicity in Wistar rat assessed as decrease in cardiac beats per minute at 10 mg/kg, iv by ECG; assay type: toxicity, organism-based, Heart; design: dose 10 mg/kg, route intravenous; scale not given: the % may be the effect or the level left; settings: in vivo
Rattus norvegicus [2] = assay: Cardiotoxicity in Wistar rat assessed as prolongation of QT interval at 10 mg/kg, iv by ECG; assay type: toxicity, organism-based; design: dose 10 mg/kg, route intravenous; settings: in vivo
Rattus norvegicus [3] = assay: Antiarrhythmic activity in anaesthetized iv dosed Wistar rat assessed as decrease in adrenaline-induced cardiac rhythm disturbance administered 15 mins before adrenaline challenge; assay type: functional; settings: Heart
Rattus norvegicus [4] = assay: Antiarrhythmic activity in anaesthetized Wistar rat assessed as decrease in arrhythmia-induced mortality at 1.25 mg/kg, iv administered 15 mins before adrenaline challenge; assay type: functional, Heart; design: scale not given: the % may be the effect or the level left
Rattus norvegicus [5] = assay: Hypotensive activity in normotensive Wistar rat assessed as reduction in blood pressure at 0.625 mg/kg, iv after 60 mins; assay type: functional, organism-based; design: dose 0.625 mg/kg
Rattus norvegicus [6] = assay: Hypotensive activity in normotensive Wistar rat assessed as reduction in systolic blood pressure at 1.25 mg/kg, iv; assay type: functional, Artery; design: scale not given: the % may be the effect or the level left
Rattus norvegicus [7] = assay: Hypotensive activity in normotensive Wistar rat assessed as reduction in diastolic blood pressure at 1.25 mg/kg, iv; assay type: functional, Artery; design: scale not given: the % may be the effect or the level left
[8] = biological target: T1, Adrenergic receptor alpha-1 (Rattus norvegicus, UniProt P15823+P23944+P43140); assay: Displacement of [3H]prazosin from alpha1 adrenergic receptor in rat cerebral cortex by liquid scintillation counting; assay type: tissue-based
T1 sequence (P15823 whole entry): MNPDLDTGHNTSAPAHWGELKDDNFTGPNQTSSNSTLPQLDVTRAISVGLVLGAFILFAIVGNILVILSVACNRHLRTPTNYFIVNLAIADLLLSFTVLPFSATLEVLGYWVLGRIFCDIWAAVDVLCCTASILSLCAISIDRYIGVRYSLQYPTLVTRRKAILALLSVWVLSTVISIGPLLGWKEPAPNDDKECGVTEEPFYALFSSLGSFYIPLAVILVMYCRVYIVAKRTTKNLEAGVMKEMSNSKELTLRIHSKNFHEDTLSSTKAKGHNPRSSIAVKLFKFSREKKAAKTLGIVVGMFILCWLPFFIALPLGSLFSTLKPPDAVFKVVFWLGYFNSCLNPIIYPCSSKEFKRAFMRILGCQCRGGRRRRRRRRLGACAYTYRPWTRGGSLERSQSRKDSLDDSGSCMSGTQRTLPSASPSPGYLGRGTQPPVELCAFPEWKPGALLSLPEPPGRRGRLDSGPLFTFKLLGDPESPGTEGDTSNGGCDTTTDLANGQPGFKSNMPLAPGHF
T1 sequence (P23944 whole entry): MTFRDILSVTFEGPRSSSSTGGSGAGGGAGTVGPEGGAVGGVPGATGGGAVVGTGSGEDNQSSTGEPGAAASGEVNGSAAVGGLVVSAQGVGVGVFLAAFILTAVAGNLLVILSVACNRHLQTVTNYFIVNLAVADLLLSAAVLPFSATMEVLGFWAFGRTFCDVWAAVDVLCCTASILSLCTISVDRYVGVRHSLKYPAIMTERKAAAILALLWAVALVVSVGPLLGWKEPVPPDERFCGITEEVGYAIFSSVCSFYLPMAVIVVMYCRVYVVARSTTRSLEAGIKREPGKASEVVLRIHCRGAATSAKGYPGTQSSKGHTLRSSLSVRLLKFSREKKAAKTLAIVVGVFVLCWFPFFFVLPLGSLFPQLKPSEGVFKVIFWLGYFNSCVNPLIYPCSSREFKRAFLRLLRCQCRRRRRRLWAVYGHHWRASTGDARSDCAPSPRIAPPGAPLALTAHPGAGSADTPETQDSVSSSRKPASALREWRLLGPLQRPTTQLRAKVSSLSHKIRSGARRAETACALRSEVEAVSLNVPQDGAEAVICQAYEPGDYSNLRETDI
T1 sequence (P43140 whole entry): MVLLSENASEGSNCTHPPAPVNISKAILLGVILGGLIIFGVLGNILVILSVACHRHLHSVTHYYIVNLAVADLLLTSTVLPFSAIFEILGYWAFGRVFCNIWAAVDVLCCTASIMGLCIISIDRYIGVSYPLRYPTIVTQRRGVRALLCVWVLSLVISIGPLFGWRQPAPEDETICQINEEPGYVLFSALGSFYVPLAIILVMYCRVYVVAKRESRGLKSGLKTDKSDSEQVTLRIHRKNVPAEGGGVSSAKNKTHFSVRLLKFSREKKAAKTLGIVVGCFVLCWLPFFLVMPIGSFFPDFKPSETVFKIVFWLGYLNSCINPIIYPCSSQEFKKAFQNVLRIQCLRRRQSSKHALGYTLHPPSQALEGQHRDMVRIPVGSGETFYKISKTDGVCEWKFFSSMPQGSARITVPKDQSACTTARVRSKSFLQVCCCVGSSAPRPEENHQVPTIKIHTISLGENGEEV

Mus musculus [9] = assay: Anticonvulsant activity in CF1 mouse assessed as inhibition of maximal electroshock-induced seizures at 30 mg/kg, ip after 0.5 hrs; assay type: functional, organism-based; design: dose 30 mg/kg
Mus musculus [10] = assay: Anticonvulsant activity in CF1 mouse assessed as inhibition of maximal electroshock-induced seizures at 100 mg/kg, ip after 0.5 hrs; assay type: functional, organism-based; design: dose 100 mg/kg
Mus musculus [11] = assay: Anticonvulsant activity in CF1 mouse assessed as inhibition of maximal electroshock-induced seizures at 300 mg/kg, ip after 0.5 hrs; assay type: functional, organism-based; design: dose 300 mg/kg
Mus musculus [12] = assay: Anticonvulsant activity in CF1 mouse assessed as inhibition of maximal electroshock-induced seizures at 30 mg/kg, ip after 4 hrs; assay type: functional, organism-based; design: dose 30 mg/kg
Mus musculus [13] = assay: Anticonvulsant activity in CF1 mouse assessed as inhibition of maximal electroshock-induced seizures at 100 mg/kg, ip after 4 hrs; assay type: functional, organism-based; design: dose 100 mg/kg
Mus musculus [14] = assay: Anticonvulsant activity in CF1 mouse assessed as inhibition of maximal electroshock-induced seizures at 300 mg/kg, ip after 4 hrs; assay type: functional, organism-based; design: dose 300 mg/kg
Mus musculus [15] = assay: Anticonvulsant activity in CF1 mouse assessed as inhibition of subcutaneous pentylenetetrazole-induced seizures; assay type: functional, organism-based
Mus musculus [16] = assay: Neurotoxicity in CF1 mouse at 300 mg/kg, ip after 0.5 hrs by rotarod test; assay type: toxicity, organism-based; design: dose 300 mg/kg, route intraperitoneal; settings: in vivo
Mus musculus [17] = assay: Neurotoxicity in CF1 mouse at 30 mg/kg, ip after 4 hrs by rotarod test; assay type: toxicity, organism-based; design: dose 30 mg/kg, route intraperitoneal; settings: in vivo
Mus musculus [18] = assay: Neurotoxicity in CF1 mouse at 300 mg/kg, ip after 4 hrs by rotarod test; assay type: toxicity, organism-based; design: dose 300 mg/kg, route intraperitoneal; settings: in vivo
[19] = biological target: Beta-1 adrenergic receptor (Rattus norvegicus, UniProt P18090); assay: biochemical
Description: Displacement of [3H]CGP12177 from beta-1 adrenergic receptor in rat cerebral cortex by liquid scintillation counting

Rattus norvegicus [20] = assay: Hypotensive activity in normotensive Wistar rat assessed as reduction in blood pressure at 10 mg/kg, iv after 60 mins; assay type: functional, organism-based; design: dose 10 mg/kg
Mus musculus [21] = assay: Neurotoxicity in CF1 mouse at 30 mg/kg, ip after 0.5 hrs by rotarod test; assay type: toxicity, organism-based; design: dose 30 mg/kg, route intraperitoneal; settings: in vivo
Mus musculus [22] = assay: Neurotoxicity in CF1 mouse at 100 mg/kg, ip after 0.5 hrs by rotarod test; assay type: toxicity, organism-based; design: dose 100 mg/kg, route intraperitoneal; settings: in vivo
Mus musculus [23] = assay: Neurotoxicity in CF1 mouse at 100 mg/kg, ip after 4 hrs by rotarod test; assay type: toxicity, organism-based; design: dose 100 mg/kg, route intraperitoneal; settings: in vivo
Rattus norvegicus [24] = assay: Cardiotoxicity in Wistar rat assessed as decrease in cardiac beats per minute at 5 mg/kg, iv by ECG; assay type: toxicity, organism-based, Heart; design: dose 5 mg/kg, route intravenous; scale not given: the % may be the effect or the level left; settings: in vivo
Rattus norvegicus [25] = assay: Cardiotoxicity in Wistar rat assessed as prolongation of PQ interval at 5 mg/kg, iv by ECG; assay type: toxicity, organism-based; design: dose 5 mg/kg, route intravenous; settings: in vivo
Rattus norvegicus [26] = assay: Hypotensive activity in normotensive Wistar rat assessed as reduction in diastolic blood pressure at 2.5 mg/kg, iv; assay type: functional, organism-based; design: dose 2.5 mg/kg; settings: Artery
Rattus norvegicus [27] = assay: Cardiotoxicity in Wistar rat assessed as prolongation of PQ interval at 10 mg/kg, iv by ECG; assay type: toxicity, organism-based; design: dose 10 mg/kg, route intravenous; settings: in vivo

Beta-1 adrenergic receptor, sequence (P18090 whole entry): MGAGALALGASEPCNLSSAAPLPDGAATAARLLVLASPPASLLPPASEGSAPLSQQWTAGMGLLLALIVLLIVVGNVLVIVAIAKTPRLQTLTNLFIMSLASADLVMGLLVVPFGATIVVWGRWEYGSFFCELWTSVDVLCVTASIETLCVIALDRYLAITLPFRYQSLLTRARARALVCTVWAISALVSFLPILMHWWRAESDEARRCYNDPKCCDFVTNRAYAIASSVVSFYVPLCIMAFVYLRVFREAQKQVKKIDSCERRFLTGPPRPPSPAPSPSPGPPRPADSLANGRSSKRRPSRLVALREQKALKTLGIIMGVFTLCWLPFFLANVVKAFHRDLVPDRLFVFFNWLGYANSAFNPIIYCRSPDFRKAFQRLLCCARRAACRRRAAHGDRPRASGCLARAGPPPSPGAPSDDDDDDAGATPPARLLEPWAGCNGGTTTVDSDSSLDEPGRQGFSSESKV

Compound | Ki [8] [µM] | pKi [19] | Activity (Rattus norvegicus [1]) [%] | ED50 (Rattus norvegicus [3]) [mg/kg] | Activity (Mus musculus [9]) | Activity (Mus musculus [10]) | Activity (Mus musculus [11]) | Activity (Mus musculus [12]) | Activity (Mus musculus [13]) | Activity (Mus musculus [14]) | Activity (Mus musculus [15]) | Activity (Mus musculus [16]) | Activity (Mus musculus [17]) | Activity (Mus musculus [18]) | Activity (Rattus norvegicus [3]) | Activity (Mus musculus [21]) | Activity (Mus musculus [22]) | Activity (Mus musculus [23]) | further results
CC(C)(CO)NCC(O)COc1cccc2c(=O)c3ccc(Cl)cc3oc12.Cl (centres undefined) | 5.6 | 7.96 | 30 | 2.46 | inactive | inactive | inactive | inactive | inactive | inactive | inactive | Toxic | Non-toxic | Toxic | – | – | – | – | Activity (Rattus norvegicus [2]): 13%; Activity (Rattus norvegicus [4]): 60%; Activity (Rattus norvegicus [5]): Active; Activity (Rattus norvegicus [6]): 17%; Activity (Rattus norvegicus [7]): 19%
CC(CO)(CO)NCC(O)COc1cccc2c(=O)c3ccccc3oc12.Cl (centres undefined) | 49.8 | 8.40 | – | 1.75 | inactive | inactive | inactive | inactive | inactive | inactive | inactive | 25% | Non-toxic | Non-toxic | – | Non-toxic | Non-toxic | Non-toxic | Activity (Rattus norvegicus [24]): 13%; Activity (Rattus norvegicus [25]): Toxic; Activity (Rattus norvegicus [26]): inactive
CC(C)NCC(O)COc1cccc2ccccc12 (centres undefined) [PROPRANOLOL] | – | – | – | 1.05 | – | – | – | – | – | – | – | – | – | – | – | – | – | – | –
CC(C)(CO)NCCCOc1cccc2c(=O)c3ccccc3oc12.Cl | 8.7 | 5.59 | 15 | – | inactive | inactive | inactive | inactive | inactive | inactive | inactive | 25% | Non-toxic | Non-toxic | Active | Non-toxic | Non-toxic | Non-toxic | Activity (Rattus norvegicus [27]): Toxic; Activity (Rattus norvegicus [20]): Active
CC(CO)(CO)NCC(O)COc1cccc2c(=O)c3ccc(Cl)cc3oc12.Cl (centres undefined) | 20.6 | 7.33 | – | – | inactive | inactive | inactive | inactive | inactive | inactive | inactive | Non-toxic | – | – | Active | Non-toxic | Non-toxic | Non-toxic | Activity (Rattus norvegicus [24]): 21%; Activity (Rattus norvegicus [26]): inactive

Second part, led by results:

Ki [8] [µM] | pKi [19] | Compound | Activity (Rattus norvegicus [1]) [%] | ED50 (Rattus norvegicus [3]) [mg/kg] | Activity (Mus musculus [9]) | Activity (Mus musculus [10]) | Activity (Mus musculus [11]) | Activity (Mus musculus [12]) | Activity (Mus musculus [13]) | Activity (Mus musculus [14]) | Activity (Mus musculus [15]) | Activity (Mus musculus [16]) | Activity (Mus musculus [17]) | Activity (Mus musculus [18]) | Activity (Rattus norvegicus [3]) | Activity (Mus musculus [21]) | Activity (Mus musculus [22]) | Activity (Mus musculus [23]) | further results
8.1 | 4.35 | C=CCNCC(O)COc1ccc2c(=O)c3ccccc3oc2c1.Cl (centres undefined) | – | – | inactive | – | Active | inactive | inactive | Active | inactive | Toxic | Non-toxic | Non-toxic | Active | Non-toxic | Non-toxic | Non-toxic | Activity (Rattus norvegicus [20]): Active
4.6 | 5.11 | C=CCNCCCOc1cccc2c(=O)c3ccccc3oc12.Cl | 20 | – | inactive | inactive | – | inactive | inactive | – | inactive | Toxic | Non-toxic | – | Active | Non-toxic | – | Non-toxic | Activity (Rattus norvegicus [27]): Toxic
